Source: patent US9150887B2, “Ethanologenic bacteria with increased resistance to furfural” (UNIVERSITY OF FLORIDA RESEARCH FOUNDATION, INC., priority 2009, dated 2015)
Values after ≈ are worked out from the molar mass of the structure shown. “Also recorded” adds a separate entry of the source. Where two headings read alike, the source gives them in different places.

Experiments:
EMFR9 [1] = assay: Furfural toxicity (MIC) in tube cultures; type: cell-based, Escherichia coli; settings: for MIC: other compounds of hemicellulose hydrolysates, data not shown
Description: (§1) Cultures were inoculated to an initial density of 17 mg dcw liter^−1. Cell mass was measured after incubation at 37° C. for 24 h and 48 h.

LY180 [2] = assay: Furfural toxicity (MIC) in tube cultures; type: cell-based, Escherichia coli; settings: for MIC: other compounds of hemicellulose hydrolysates, data not shown
Description: as §1

EMFR9 [3] = assay: Effect of 5-HMF on anaerobic growth and fermentation; type: cell-based, Escherichia coli
Description: (§2) For fermentation experiments, seed cultures of LY180 and EMFR9 were grown overnight in small fermentors (37° C., 200 rpm) containing 350 ml of AM1 medium. Broth was maintained at pH 6.5 by the automatic addition of 2 N KOH. Upon reaching mid-log phase, experimental fermenters were inoculated to an initial cell density of 0.1 OD550 nm. (33 mg dry cell weight l^−1). Cell mass (OD550 nm) and furan levels were monitored at 12-h intervals as described previously (Martinez et al. 2000b Biotechnol Prog 16: 637-641).

LY180 [4] = assay: as above; type: cell-based, Escherichia coli; settings: 1.0 g l^−1 5-HMF; 100 g l^−1 xylose
Description: as §2

LY180 [5] = assay: 5-HMF tolerance in tube cultures with cysteine supplement; type: cell-based, Escherichia coli
Description: Tolerance to 5-HMF was tested using 13×100 mm closed tubes containing 4 ml AM1 and 5-HMF as indicated. When appropriate, antibiotics were included for plasmid maintenance. Tubes were inoculated to an initial density of 0.05 OD550 nm. […] To examine the effects of pntAB on furan tolerance, a multiwall plate containing 400 μl of AM1 (and 5-HMF or furfural) per well was inoculated as above. OD(420-580 nm bandwidth) was measured for 72 h using a Bioscreen C growth analyzer (Oy Growth Curves, Helsinki, Finland).

[6] = tested on: yqhC, yqhD and dkgA transcripts in LY180; assay: Microarray analysis of transcripts after furfural addition; type: cell-based, Escherichia coli; settings: 15 min after 0.5 g liter^−1 furfural
Description: For each strain, 4 replicate 350 ml cultures were grown to OD=[…] (0.66 g dcw liter^−1) and sampled. Furfural (0.5 g liter^−1) was added and samples were removed after 15 minutes of incubation. Culture samples were cooled in a dry ice/ethanol bath. Cells were pelleted at 4° C., resuspended in RNA Later (Qiagen), and stored at −80° C. Cell pellets from the 4 fermentors were pooled and used for RNA isolation (Qiagen RNeasy Mini Kit). RNA was treated with DNase, re-purified, and assessed for quality using an Agilent Bioanalyzer. RNA samples were submitted to Nimblegen for conversion to cDNA, labeling with Cy3, and hybridization to the E. coli K12 TI8333 microarray chip. This chip contains 385,000 60-mer probes derived from E. coli K12 strain MG1655, and has 5 replicates of each probe with an average of 18 probes per gene. Normalized expression data from Nimblegen was imported into ArrayStar (DNA Star) for analysis.

EMFR9 [7] = assay: Furfural resistance and metabolism during pH-controlled fermentation; type: cell-based, Escherichia coli
Description: (§3) Furfural resistance was compared in small fermenters (37° C., 150 rpm, pH 6.5, 350-ml working volume) using AM1 medium (Martinez et al. 2007 Biotechnol. Lett. 29:397-404) containing 100 g liter^−1 xylose. Seed cultures were inoculated to approximately 33 mg dcw liter^−1. Samples were removed periodically to measure cell mass, ethanol, and furfural.

LY180 [8] = assay: as above; type: cell-based, Escherichia coli
Description: as §3

yqhD promoter [9] = assay: Luciferase reporter activity from the yqhD promoter in LY180; type: cell-based, Escherichia coli
Description: (§4) Cultures of E. coli carrying appropriate reporter plasmids were grown in AM1-5% xylose to OD 0.2-0.4. After addition of furfural, cells were pelleted, resuspended in Qiagen Qproteome bacterial lysis buffer, and stored at −80° C. The lysates were thawed at 37° C. for 2 minutes, and transferred to a white 96-well plate. An equal volume (50 uL) of PerkinElmer BriteLite reagent was added to each well, and the luminescence measured in a Promega Glomax 96-well luminometer.
(§5) Plasmid pLOI4900 was constructed by transferring the firefly luciferase gene into pBAD24 (Guzman et al. 1995 J. Bacteriol. 177: 4121-4130), and then replacing the araC gene and pBAD promoter regions with a 150-bp region upstream from the yqhD gene in LY180. This putative yqhD promoter region was PCR amplified using primers PCT6 and PCT7 (Table 2).
(§6) Cultures of E. coli carrying appropriate reporter plasmids were grown in AM1-50 g liter^−1 xylose to OD 0.4. After sampling the cultures, furfural was added, and incubation continued for 5, 15 or 30 min before sampling again. Untreated and furfural-treated cells were pelleted, resuspended in Qiagen Qproteome bacterial lysis buffer, and stored at −80° C. The lysates were thawed at 37° C. for 2 minutes, and transferred to a 96-well plate (white). An equal volume (50 μL) of PerkinElmer BriteLite reagent was added to each well. Luminescence was measured using a Promega Glomax 96-well luminometer.

yqhD promoter [10] = assay: Luciferase reporter activity from the yqhD promoter in LY180ΔyqhC; type: cell-based, Escherichia coli; settings: yqhC deletion strain with pLOI4900; furfural addition
Description: as §4, §5
as §6, with “An equal volume (50 μL) of PerkinElmer BriteLite reagent was added to each well.” left out

LY180ΔyqhC = assay: Furfural reduction in vivo during fermentation; type: cell-based, Escherichia coli; settings: furfural 0.5 g liter^−1
Description: (§7) Cultures grown to a cell density of […] in fleakers containing 350 mL AM1-10% xylose medium were sampled immediately before and 15, 30, and 60 minutes after addition of furfural to 0.5 g/L. The residual furfural concentration in the culture was determined after removal of bacterial cells by centrifugation. A spectrophotometric method was used, as described previously.
(§8) Cultures were grown to a cell density of 0.66 g dcw liter^−1 in fleakers containing 350 mL AM1-100 g liter^−1 xylose medium and sampled immediately before and 15, 30, and 60 minutes after addition of furfural (to 0.5 g liter^−1) as previously described (Miller et al. 2009 Appl. Environ. Microbiol. 75:4315-4323). Residual furfural was measured in the culture broth after centrifugation using a spectrophotometric method (Martinez et al. 2000 Biotechnol. Prog. 16: 637-641).

LY180 [11] = assay: Furfural reduction in vivo during fermentation; type: cell-based, Escherichia coli; settings: furfural 0.5 g liter^−1
Description: as §7, §8

yqhD promoter [12] = assay: Luciferase reporter activity from the yqhD promoter in EMFR9; type: cell-based, Escherichia coli; settings: EMFR9 with yqhD promoter reporter plasmid; furfural addition
Description: as §4, §6

yqhD promoter [13] = assay: Luciferase reporter activity from the yqhD promoter in EMFR17; type: cell-based, Escherichia coli; settings: EMFR17 with pPyqhD-luc; furfural addition
Description: as §4

DkgA [14] = target: T1, DkgA (Escherichia coli, UniProt Q46857); assay: Kinetic analysis of purified His-tagged DkgA; type: biochemical; settings: purified enzyme, with furfural; read-out: apparent Km for NADPH
T1 construct: For-[…]; His-tag (N); made in house; host or cells: E. coli BL21 (DE3)
Description: Both the yqhD and dkgA genes were cloned into a Novagen pET-15b vector and expressed as a His-tagged protein in E. coli BL21 (DE3). Cells were grown with IPTG to approximately 1.3 g dcw liter^−1, washed with 100 mM phosphate buffer, and lysed using MP Fast Prep-24 (MP Biomedical, Solon Ohio) and Lysing Matrix B. Crude extracts were passed through a 0.22 μm PVDF filter and further purified using a 1 mL HiTrap nickel column. Purified enzymes were dialyzed in 100 mM phosphate buffer using a Thermo Slide-A-Lyser and quantified using a Thermo BCA Protein Assay Kit. Purity of YqhD and DkgA were estimated to be greater than 90% by SDS-PAGE. […] Estimated sizes of the purified proteins were in agreement with predicted values of 43 kD and 31 kD, respectively. Apparent Kcat and apparent Km values were determined for both purified enzymes using NADPH and furfural.

YqhD [15] = target: T2, YqhD (Escherichia coli, UniProt Q46856); design: For-[…]; His-tag (N); made in house; host or cells: E. coli BL21 (DE3); settings: Miller et al. 2009b; read-out: apparent Km for NADPH; cited from earlier work
T2 sequence (Q46856 1-387): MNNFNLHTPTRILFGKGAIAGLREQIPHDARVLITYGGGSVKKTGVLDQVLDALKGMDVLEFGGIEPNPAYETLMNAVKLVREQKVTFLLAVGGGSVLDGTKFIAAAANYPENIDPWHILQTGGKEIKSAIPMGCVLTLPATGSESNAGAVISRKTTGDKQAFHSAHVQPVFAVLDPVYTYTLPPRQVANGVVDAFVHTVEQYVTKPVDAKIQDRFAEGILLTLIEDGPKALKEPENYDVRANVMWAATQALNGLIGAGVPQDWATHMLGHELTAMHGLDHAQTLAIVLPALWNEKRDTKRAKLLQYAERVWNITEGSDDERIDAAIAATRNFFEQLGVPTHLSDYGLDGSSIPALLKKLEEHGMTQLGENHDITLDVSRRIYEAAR

YqhD [16] = target: T2, YqhD; assay: Kinetic analysis of purified His-tagged YqhD; settings: read-out: apparent Km for NADPH; purified enzyme, with furfural
Description: (§9) Cells were grown with IPTG to approximately 1.3 g dcw liter^−1, washed with 100 mM phosphate buffer, and lysed using MP Fast Prep-24 (MP Biomedical, Solon Ohio) and Lysing Matrix B. Crude extracts were passed through a 0.22 μm PVDF filter and further purified using a 1 mL HiTrap nickel column. Purified enzymes were dialyzed in 100 mM phosphate buffer using a Thermo Slide-A-Lyser and quantified using a Thermo BCA Protein Assay Kit. […] Apparent Kcat and apparent Km values were determined for both purified enzymes using NADPH and furfural.

DkgA [17] = target: T1, DkgA; settings: Miller et al. 2009b; read-out: apparent Km for NADPH; cited from earlier work
[18] = substrate: O=Cc1ccco1; assay: cells, lysate or membranes named; settings: other: purified enzyme, NADPH-dependent reduction
Description: as §9

[19] = mineral salts media with 50 g liter^−1 xylose, 48 h
[20] = xylose-mineral salts medium with yeast extract (1.0 g liter^−1)

T1 sequence (Q46857 whole entry): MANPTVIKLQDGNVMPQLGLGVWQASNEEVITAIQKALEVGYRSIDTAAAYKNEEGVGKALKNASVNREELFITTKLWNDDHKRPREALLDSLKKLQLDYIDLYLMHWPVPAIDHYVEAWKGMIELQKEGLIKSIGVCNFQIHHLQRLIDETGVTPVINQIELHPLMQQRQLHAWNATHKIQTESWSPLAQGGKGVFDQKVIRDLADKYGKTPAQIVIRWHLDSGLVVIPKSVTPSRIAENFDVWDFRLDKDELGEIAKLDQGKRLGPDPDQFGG

Molecule: OCc1ccco1 [furfuryl alcohol]
- MIC (EMFR9 [1]): 15000 µg/mL (≈ 153 mM)
- MIC (LY180 [2]): 15000 µg/mL (≈ 153 mM)

Molecule: O=Cc1ccc(CO)o1 [5-HMF, 5-hydroxymethyl furfural]
- effect on cell yield or ethanol yield (EMFR9 [3]; 1.0 g l^−1 5-HMF): no detrimental effect
- effect on ethanol production and growth (EMFR9 [3]; 2.5 g 5-HMF l^−1): slowed
- time to completion of ethanol production and growth (EMFR9 [3]; 2.5 g 5-HMF l^−1): 96 h
- effect on growth (LY180 [4]): completely inhibited
- effect on growth (LY180 [5]; 1 g l^−1 5-HMF, tube cultures, 24 h): partially inhibited

Molecule: COc1cc(C=O)cc(OC)c1O [syringaldehyde]
- MIC (EMFR9 [1]): 2000 µg/mL (≈ 11 mM)
- MIC (LY180 [2]): 2000 µg/mL (≈ 11 mM)

Molecule: O=Cc1ccco1 [furfural]
- up-regulation of yqhC, yqhD and dkgA transcripts [6]: > 6 fold
- minimal inhibitory concentration (MIC) of furfural (EMFR9 [1]; [19]): ~2000 µg/mL
- furfural MIC (EMFR9 [1]; xylose replaced with glucose): 2500 µg/mL
- furfural MIC (EMFR9 [1]; [20]): 2500 µg/mL
- minimal inhibitory concentration (MIC) of furfural (LY180 [2]; [19]): approximately 1.0 g liter^−1
- furfural MIC (LY180 [2]; xylose replaced with glucose): 1500 µg/mL
- furfural MIC (LY180 [2]; [20]): 2000 µg/mL
- time to complete reduction of furfural (EMFR9 [7]; 0.4 g liter^−1 furfural): 12 h
- time to complete reduction of furfural (EMFR9 [7]; 1.0 g liter^−1 furfural): 18 h
- effect on growth and fermentation (EMFR9 [7]; furfural 0.4 g liter^−1 or 1.0 g liter^−1): virtually unaffected
- effect on growth and ethanol production (LY180 [8]; 0.4 g liter^−1 furfural, 100 g liter^−1 xylose): initial lag in growth and ethanol production
- effect on growth and ethanol production (LY180 [8]; 1.0 liter^−1 furfural, 72-h incubation): strongly inhibited
- effect on luciferase activity (yqhD promoter [9]; LY180(pLOI4900), furfural 1 mM, 5 mM and 10 mM, evident within 5 min): dose-dependent increase in luciferase activity
- effect on luciferase activity (yqhD promoter [9]; LY180 carrying pPyqhD-luc, 15 minutes after addition of furfural): activity was increased
- effect on luciferase activity (yqhD promoter [10]): no furfural-dependent response was observed
- in vivo rate of furfural reduction (LY180ΔyqhC): 0.025±0.005 μmol min^−1 mg dcw^−1
- in vivo rate of furfural reduction (LY180 [11]): 0.042±0.001 μmol min^−1 mg dcw^−1
- effect on luciferase expression (yqhD promoter [12]): luciferase expression was not increased; also recorded: did not increase luciferase activity
- effect on luciferase expression (yqhD promoter [13]): luciferase expression was not increased

Molecule: NADPH
- Km (DkgA [14]): 23 µM
- Km (YqhD [15]): 8 µM
- Km (YqhD [16]): 8 µM
- Km (DkgA [17]): 23 µM

Molecule: N[C@@H](CS)C(=O)O [cysteine, L-cysteine]
- restoration of growth by supplement (LY180 [5]; 100 μM cysteine with 1 g l^−1 5-HMF): completely restored
- restoration of growth by supplement (LY180 [5]; 100 μM or 1000 μM cysteine with 2.5 g l^−1 5-HMF): not restored
- effect of supplement on the MIC for 5-HMF (LY180 [5]; cysteine supplements): did not increase the MIC

Molecule: CC(=O)C=O [Methylglyoxal]
- effect on luciferase activity (yqhD promoter [9]; LY180(pLOI4900), 0.1 mM): increase luciferase activity

B1: YqhD (Escherichia coli K-12) (protein)
chain: MNNFNLHTPTRILFGKGAIAGLREQIPHDARVLITYGGGSVKKTGVLDQVLDALKGMDVLEFGGIEPNPAYETLMNAVKLVREQKVTFLLAVGGGSVLDGTKFIAAAANYPENIDPWHILQTGGKEIKSAIPMGCVLTLPATGSESNAGAVISRKTTGDKQAFHSAHVQPVFAVLDPVYTYTLPPRQVANGVVDAFVHTVEQYVTKPVDAKIQDRFAEGILLTLIEDGPKALKEPENYDVRANVMWAATQALNGLIGAGVPQDWATHMLGHELTAMHGLDHAQTLAIVLPALWNEKRDTKRAKLLQYAERVWNITEGSDDERIDAAIAATRNFFEQLGVPTHLSDYGLDGSSIPALLKKLEEHGMTQLGENHDITLDVSRRIYEAAR
- Km [18]: 9000 µM
